pIC50: −log10 of the molar value. Where two headings read alike, the source gives them in different places.
Assays:
CHO cells = test: Radiosensitization of CHO cells (enhancement ratio); type: cell-based, Chinese hamster; conditions: for ER: Table 1; for radiosensitization, relative effectiveness: cis configuration, various concentrations, FIG. 2
Method: Radiosensitization of CHO cells was determined as described by Moore, B. A., et al, sucra, at 4° C., except that the cells were incubated with complex for 1 hr at 37° C. to allow binding to DNA prior to radiation. A Picker X-ray source (250 kVp, 1.7 mm Cu) was used. As with the toxicity studies, cells were carried, irradiated, and plated in MEM a medium with 10% fetal calf serum, and plating efficiencies were determined on the seventh day after plating. Enhancement ratios (ER) were calculated from the doses required to reduce survival to 1%.

[1] = tested on: Chinese hamster ovary (CHO) cells; test: Toxicity in hypoxic and aerated CHO cells (plating efficiency/survival); type: cell-based; design: plating efficiency / effect on plating efficiency: dose or concentration left out as unconfirmed; conditions: for order of toxicity of free ligand: free ligands; for toxicity compared with the compounds of the invention: 100 mM/dm^3 experiments; for approximate order of hypoxic toxicity of platinum complexes: hypoxia
Method: The toxicity of the invention compounds with respect to Chinese hamster ovary (CHO) cells was compared in air and in nitrogen induced hypoxia as described by Moore, B. A., et al, Radiation Research (1976) 67:459-478. The radiosensitizing ligands, or cis or transdichlorodiamine platinum II (DDP) or the . bisubstituted platinum complexes, PtCl2 (L)2, were used as controls.
The cells were carried in MEM a medium with 10% fetal calf serum, and plating efficiencies were determined on the seventh day after plating.
In similar experiments at 100 mM/dm^3, MISO and trans-[PtCl2 (miso)2 ] show no toxicity. Survival rates for trans-DDP and monoammine were 0.2 and 0.1 respectively.
Using 100 mM levels, mono-6NQ caused plating efficiency to drop to 0 after an hour, while 6NQ had no effect after 3 hours.

cells = conditions: cited from earlier work
tumors = conditions: cited from earlier work
[2] = tested on: L1210 cells, cDDP resistant line; test: Toxicity in cisDDP-resistant L1210 cells (cross-resistance); type: cell-based; conditions: for Ratio (ID50 cDDP resistant/cDDP sensitive): L1210 cells; for pIC50: L1210, cDDP resistant line, read-out: ID50 (the source's name)
Source text: (§1) Patients become resistant to cisplatin (cisDDP) and to many related drugs.

[3] = tested on: L1210 cells, cDDP sensitive line; test: Toxicity in cisDDP-sensitive L1210 cells; type: cell-based; conditions: read-out: ID50 (the source's name)
Source text: as §1

plasmid pSV2-gpt DNA = test: Binding to DNA by inhibition of restriction enzyme (BamHI) cleavage of plasmid DNA; type: biochemical; design: inhibition of BamHI cleavage / inhibition of cleavage with BamHI: unit of the concentration uncertain; conditions: for binding to DNA as indicated by enzyme inhibition: 1 hr at 37° C.; for binding to DNA, relative: all concentrations, FIG. 8; for inhibition of cleavage with BamHI: FIG. 3
Method: The ability of the invention compounds to bind DNA was tested using an assay which is based on inhibition of the ability of restriction enzymes to cleave the complexed DNA. The substrate in the assay was the plasmid pSV2-gpt (Mulligan, R., et al Science (1980) 209:1422-1427). After growth in E. coli. this 5.2 kb plasmid was extracted and linearized using PvuII. Cleavage of the extracted linearized segment by BamHI or EcoRI results in two fragments per enzyme. Inhibition of this cleavage by test compounds provides an assay method for binding of the test compounds.
In the assay, DNA (20 mg/ml) in 100 mM Tris-HCl, 1 mM EDTA, pH 8, was treated with the test compounds at approximately 100 mM for 1 hr at 37° C. Unbound drug was then removed using a G-50 Sephadex spin column (Pharmacia).
To 30 mM of the treated DNA, 23.5 ml of a buffer solution containing 0.33 M Tris-acetate, pH 7.9, 0.66 M potassium acetate, 0.10 M dithiothreitol, and 1 mg/ml BSA, along with 10 units of enzyme, were added. Enzyme activity was stopped using 1 ml 0.5 M EDTA after 30 min at 37° C. Tracking 0.25% bromophenol blue, 0.25% xylene cyanol in 30% glycerol water) was added, and 10 ml of the resulting solution loaded onto a 1% agarose gel made with E buffer (0.04 M Tris, 5 mM sodium acetate; 1 mM EDTA, pH 7.8) and subjected to horizontal electrophoresis. The slab gel was stained with aqueous ethidium bromide solution (1 ng/ml) and photographed under UV light.
Inhibition of the restriction enzyme cleavage was assessed qualitatively by noting the relative proportion of bands, or quantitatively by analyzing densitometric scans of the negatives of the recorded pictures.

cancer = conditions: cited from earlier work
DNA of CHO cells = test: Platinum bound to DNA extracted from whole CHO cells, atomic absorption; type: cell-based, Chinese hamster; design: dose or concentration left out as unconfirmed; conditions: 1-2 hr exposure
Source text: Though the results of this assay were erratic they establish that the Pt complexes cross cell membranes and bind to DNA in mammalian cells.

KHT sarcoma = test: Potentiation of cytotoxicity in vivo by hydralazine, KHT sarcoma model
[4] = 100 mM/dm^3, cis configuration or ligand alone, dose to reduce survival to 1%
[5] = FIG. 7, cis-mono-4NI and cis-mono-5NI

With O=[N+]([O-])c1c[nH]cn1 [4-nitroimidazole] the “enhancement ratio (ER)” value (CHO cells; [4]) was 1.10 and the “order of toxicity of free ligand” value [1] was 4-nitroimidazole f MISO f ANT f METRO.
In the case of O=[N+]([O-])c1ccc2ncccc2c1 [6NQ, 6-nitroquinoline], the “effect on plating efficiency” value ([1]; after 3 hours) was “no effect”.
With Nc1ncc([N+](=O)[O-])s1 [ANT, 2-amino-5-nitrothiazole] the “enhancement ratio (ER)” value (CHO cells; [4]) was 1.25 and the “order of toxicity of free ligand” value [1] was 4-nitroimidazole f MISO f ANT f METRO.
In the case of Cc1ncc([N+](=O)[O-])n1CCO [METRO, 1,2-hydroxyethyl-2-methyl-5-nitroimidazole], the “sensitizing cells to radiation treatment in clinical trials” value (shortened to “sensitizing cells to radiation treatment”) (cells) is listed as “beneficial effects in sensitizing cells to radiation treatment” and the “order of toxicity of free ligand” value [1] is listed as 4-nitroimidazole f MISO f ANT f METRO.
For COCC(O)Cn1ccnc1[N+](=O)[O-] (centres unmarked) [MISO], the “sensitizing cells to radiation treatment” value (cells) is given as “beneficial effects in sensitizing cells to radiation treatment”, the ER (CHO cells; 100 mmol/dm^3) is given as 1.3 and the ER (CHO cells; 250 mmol/dm^3) is given as 1.4. For the same molecule, the sensitization in oxygen (CHO cells) was “no sensitization”, the toxicity ([1]; 100 mM/dm^3) was “no toxicity” and the “order of toxicity of free ligand” value [1] was 4-nitroimidazole f MISO f ANT f METRO.
For O=[N+]([O-])c1nccn1CC(O)CN1CC1 (centres unmarked) [RSU-1069], the side effects (tumors; chemotherapy) is given as “high incidence of side effects”, the “amount of RSU-1069 required for effectiveness with 5-hydroxytryptamine or hydralazine” value (tumors; coadministration of 5-hydroxytryptamine or hydralazine) is given as “can be reduced by administration of 5-hydroxytryptamine or hydralazine” and the “enhancement of effect of RSU-1069 by hydralazine” value (tumors; hydralazine 5 mg/kg or 30 mg/kg, RSU-1069 0.1 mg/g IP, within three hours) is given as “enhance the effect of RSU-1069”.
For O=C(Cn1ccnc1[N+](=O)[O-])NCCO [SR-2508], the “sensitizing cells to radiation treatment” value (cells) is listed as “beneficial effects in sensitizing cells to radiation treatment”.
With Cc1n(CCO)c([N+](=O)[O-])c[n+]1[Pt-2]([NH3+])([Cl])[Cl] [cis mono METRO] the “Ratio (ID50 cDDP resistant/cDDP sensitive)” value [2] was 5 and the pIC50 [3] was 2.36.
For N.N.[Cl][Pt][Cl] [cis-DDP, cis[PtCl2 (NH3)2]], the pIC50 [2] was 2.30, the “Ratio (ID50 cDDP resistant/cDDP sensitive)” value [2] was 50 and the “effectiveness in sensitive versus resistant cells” value ([2]; more effective in "sensitive" cells) was 50 ×. For the same molecule, the “inhibition of BamHI cleavage” value (plasmid pSV2-gpt DNA; 40 (unit uncertain)) was 30%, the “binding to DNA as indicated by enzyme inhibition” value (plasmid pSV2-gpt DNA) was “binds much more strongly than the monoammine” and the antineoplastic activity (cancer; literature, 1969) was “shown to have antineoplastic activity”. For the same molecule, the “usefulness in treatment of cancer” value (cancer; testicular cancer versus other sites) was “useful in the treatment of testicular cancer, but less so in treatment of cancers at other sites”, the ER (CHO cells; 10 mmol/dm^3) was 1.3 and the “toxicity compared with the compounds of the invention” value (“toxicity compared with the compounds” below) [1] was “somewhat more toxic than the compounds of the invention”. For the same molecule, the “approximate order of hypoxic toxicity of platinum complexes” value (“approximate order” below) [1] was “cis-DDP ff trans-mono-MISO f monoammine Z cis-mono-MISO f trans-DDP f mono-METRO Z mono-NI f mono-ANT”, the pIC50 [3] was 4.00 and the “platinum bound to the extracted DNA” value (DNA of CHO cells) was 6 ng Pt/10^6 cells.
In the case of COCC(O)Cn1cc[n+]([Pt-2]([NH3+])([Cl])[Cl])c1[N+](=O)[O-] (stereo not drawn) [cis-mono-MISO, PtCl2 (NH3) (misonidazole)], the ER (CHO cells; 100 mmol/dm^3) was 1.25, the sensitization in oxygen (CHO cells) was “no sensitization” and the “toxicity in hypoxia versus in air” value ([1]; 100 mM/dm^3, aerobic and hypoxic cells, FIG. 1) was “toxicity is greater in hypoxia than in air”. The “toxicity compared with MISO alone and cisDDP” value ([1]; complex 100 mM/dm^3, cis-DDP at 10 mM/dm^3) was “more toxic than MISO alone, although less toxic than cisDDP” and the pIC50 ([3]; listed as cis mono MISO) was 2.07.
In the case of N.O=[N+]([O-])c1c[nH]cn1.[Cl][Pt][Cl] [mono-4NI, PtCl2 (ammine)(4-nitroimidazole)], the “binding to DNA, relative” value (plasmid pSV2-gpt DNA) was “neither bound as well, however, as cis-DDP”, the “enhancement ratio (ER)” value (CHO cells; [4]) was 1.16 and the “enhancement ratio (ER)” value (CHO cells; [5]) was 1.16. The “radiosensitization, relative effectiveness” value (CHO cells) was “somewhat more effective than mono-ANT” and the “approximate order” value [1] was “cis-DDP ff trans-mono-MISO f monoammine Z cis-mono-MISO f trans-DDP f mono-METRO Z mono-NI f mono-ANT”.
In the case of N.O=[N+]([O-])c1cnc[nH]1.[Cl][Pt][Cl] [mono-5NI, PtCl2 (ammine)(5-nitroimidazole)], the “binding to DNA, relative” value (plasmid pSV2-gpt DNA) was “more effective binding to DNA at all concentrations than cis-mono-4NI; neither bound as well, however, as cis-DDP” and the “enhancement ratio (ER)” value (CHO cells; [5]) was 1.28.
In the case of N.O=[N+]([O-])c1ccc2ncccc2c1.[Cl][Pt][Cl] [mono-6NQ, [PtCl2 (NH3)(6-nitroquinoline)], the “toxicity compared with 6NQ alone” value ([1]; FIG. 5) was “much higher toxicity than 6NQ alone” and the plating efficiency ([1]; after an hour, 60 min) was 0.
With N.Nc1ncc([N+](=O)[O-])s1.[Cl][Pt][Cl] [mono-ANT, PtCl2 (ammine)(2-amino-5-nitrothiazole)] the “inhibition of cleavage with BamHI” value (plasmid pSV2-gpt DNA; 320 (unit uncertain)) was “At least 10%”, the “enhancement ratio (ER)” value (CHO cells; [4]) was 1.15 and the “approximate order” value [1] was “cis-DDP ff trans-mono-MISO f monoammine Z cis-mono-MISO f trans-DDP f mono-METRO Z mono-NI f mono-ANT”.
For Cc1ncc([N+](=O)[O-])n1CCO.N.[Cl][Pt][Cl] [mono-METRO], the “inhibition of cleavage with BamHI” value (plasmid pSV2-gpt DNA; approximately 50 mM) was “At least 10%”, the “radiosensitization, relative effectiveness” value (CHO cells) was “approximately equal to mono-ANT” and the “approximate order” value [1] was “cis-DDP ff trans-mono-MISO f monoammine Z cis-mono-MISO f trans-DDP f mono-METRO Z mono-NI f mono-ANT”.
With COCC(O)Cn1cc[n+]([Pt-2]([NH3+])([Cl])[Cl])c1[N+](=O)[O-] (centres unmarked) [mono-MISO, PtCl2 (NH3) (misonidazole)] the “inhibition of cleavage with BamHI” value (plasmid pSV2-gpt DNA; approximately 50 mM) was “At least 10%”, the “radiosensitization, relative effectiveness” value (CHO cells) was “somewhat more effective than mono-NI” and the potentiation by hydralazine (KHT sarcoma; hydralazine 5 mg/kg, FIG. 4) was “potentiating effects of hydralazine on this compound”. For the same molecule, the “dose reduction to achieve equitoxic doses when hydralazine is coadministered” value (KHT sarcoma; with hydralazine) was 4 × and the “drop in cell survival with combined therapy” value (KHT sarcoma; with hydralazine, mono-MISO 10 to 300 mg/kg, FIG. 4) was “approx. 3 logs”.
With N.[Cl][Pt-]([Cl])[Cl].[K+] [monoammine, K[PtCl3 (NH3)]] the “inhibition of BamHI cleavage” value (plasmid pSV2-gpt DNA; 160 mM (level not reached until this concentration)) was 30%, the “binding to DNA as indicated by enzyme inhibition” value (plasmid pSV2-gpt DNA) was “showed binding to the DNA as indicated by enzyme inhibition” and the ER (CHO cells; 100 mmol/dm^3) was 1.2. The Survival rate ([1]; 100 mM/dm^3) was 0.1, the “toxicity compared with the compounds” value [1] was “somewhat more toxic than the compounds of the invention” and the “approximate order” value [1] was “cis-DDP ff trans-mono-MISO f monoammine Z cis-mono-MISO f trans-DDP f mono-METRO Z mono-NI f mono-ANT”.
For N.N.[Cl][Pt+2][Cl] [trans-DDP, transdichlorodiamine platinum II], the pIC50 [2] was 1.18, the “Ratio (ID50 cDDP resistant/cDDP sensitive)” value [2] was 3 and the ER (CHO cells; 100 mmol/dm^3) was 1.3. The Survival rate ([1]; 100 mM/dm^3) was 0.2, the “toxicity compared with the compounds” value [1] was “somewhat less toxic” and the “approximate order” value [1] was “cis-DDP ff trans-mono-MISO f monoammine Z cis-mono-MISO f trans-DDP f mono-METRO Z mono-NI f mono-ANT”. For the same molecule, the pIC50 [3] was 1.66 and the “platinum bound to the extracted DNA” value (DNA of CHO cells) was 5 ng Pt/10^6 cells.
For COCC(O)Cn1cc[n+]([Pt-2]([Cl])([Cl])[n+]2ccn(CC(O)COC)c2[N+](=O)[O-])c1[N+](=O)[O-] (stereo not drawn) [trans-bis-MISO, trans-[PtCl2 (miso)2]], the ER (CHO cells; 100 mmol/dm^3) was 1.2, the sensitization in oxygen (CHO cells) was “no sensitization” and the toxicity ([1]; 100 mM/dm^3) was “no toxicity”. The “toxicity compared with the compounds” value [1] was “somewhat less toxic”.
